Results: patent US20100227356A1, “METHODS FOR ASSESSING EFFECTS ON SKELETAL GROWTH” (priority 2008, published 2010)

Test system: neonatal limb culture
Test: X-ray imaging of neonatal mouse hind limb organ culture (effect of bisphosphonates on bone density)
Assay type: cell-based, Swiss albino mouse
Conditions: 1 mM pamidronate in culture medium (well A) vs control (well B); neonatal limb in culture for 40 hours; FIG. 3
Source text: The method of the invention may be used to monitor the dynamic growth of an articulated skeletal […] by capturing a series of images overtime. In this example, an articulated lower portion (hind limb) of a limb of a neonatal, day-old Swiss albino mouse was removed and cultured in a well plate. The limb was scraped with a scalpel to abrade any skin and flesh sufficiently to allow an organ culture medium to reach the skeletal members. The scraped limb was superficially embedded in 1% agarose. The medium used for culture was 4 ml of minimum essential medium (Delbecco's Modified Eagle Medium), supplemented with 1 mM β glycerophosphate, ascorbic acid, 0.2% bovine serum albumin and antibiotics. The antibiotics contained 100 units/ml penicillin, and 100 μg/ml streptomycin. The skeletal members of the limbs continued to grow within the cultures and were imaged with X-rays (Time-Lapse-3 hrs; 11 to […] using a multi-modal system as previously described). Bone growth and mineral deposition could be measured, as could X-ray and column densities. Because the limb was articulated, the growth of individual skeletal members was influenced by neighboring members, just as in the case of growth in a living animal. The analytical X-ray imaging methodology according to the invention allows measurement of the growth of skeletal members of a neonatal mouse limb grown in vitro in organ culture. […]

## NCCC(O)(P(=O)(O)O)P(=O)(O)O [pamidronate, Pamidronate]
  bone density and size versus control (X-ray images): differences in bone density and size are observable
